Drawing on a melting point compilation (Tetko et al.; mined from patent text by program, amines drawn as free bases though some values may be those of a salt), this text covers melting point for 63 compounds.

The compound `COc1cc(-c2cc(C(F)(F)F)nn2-c2ccc(S(C)(=O)=O)c(F)c2)ccc1-c1cocn1` yielded a melting point of 148 to 150 °C.

With `CC(C)(C)c1cc(-n2nc3ccc(S(=O)c4ccccc4)cc3n2)c(O)c(C(C)(C)C)c1` (stereo not drawn), the melting point is 152 to 154 °C.

The compound `COc1ccc(-c2c(-c3ccc(S(N)(=O)=O)cc3)[nH]c3ccccc23)cc1` gave a melting point of 280 to 282 °C.

Turning to `Cc1cc(C#N)cc(Oc2[nH]c(=O)[nH]c(=O)c2C(C)C)c1`, the melting point lay in the range of 272 to 275 °C.

In turn, `C[C@@H](NC(=O)[C@H](Cc1ccc(OC(C)(C)C)cc1)N(C)C(=O)OC(C)(C)C)C(=O)O` returned a melting point of 109 to 110 °C.

On to `CC(=O)C(=NO)C(=O)OC(C)(C)C`, for which the melting point fell in the range of 55 to 63 °C.

Consider `OCc1cnc(-c2ccc(Cl)cc2)o1`, for which the melting point was 115 to 116 °C.

As to `C=CCN1CCCN(c2c(C)cccc2Cl)C1=S`, the melting point was in the range of 82 to 84 °C.

Turning to `Cc1cc(C)nc(NC(=N)Nc2ccccc2C(F)(F)F)n1`, the melting point lay in the range of 161 to 162 °C.

In turn, `COc1cccc(OC)c1-c1cc2cnc(N)nc2nc1N` came in with a melting point above 300 °C.

As to `Cc1nc(N2CCN(Cc3ccc(C(F)(F)F)cc3)C2=O)sc1C(=O)NCc1ccccc1`, the melting point was in the range of 127 to 128 °C.

`CCCCn1c(=O)n(CCC(C)(O)C#CCN(CCC)CCC)c(=O)c2c1ncn2CCC` (stereo not drawn) yielded a melting point of 101 °C.

Turning to `Cc1ccc(-c2cc(F)c(F)cc2-c2ccc(S(C)(=O)=O)cc2)cn1`, the melting point was in the range of 141 to 142 °C.

As for `CCCCCCCCCCCCCCCCCCOc1cc(OCCCOc2cccc(N)c2)cc(C(=O)N(CC(=O)O)CC(=O)O)c1`, the melting point lay within 100 to 104 °C.

`O=[N+]([O-])c1ccc(Cl)cc1NCC1CCCCC1`: the melting point is 73 °C.

With `COc1cc2c(cc1OC)C(C)Cn1c-2cc(=Nc2c(C)cc(C)cc2C)n(C)c1=O` (stereo not drawn), the melting point was in the range of 156 to 157 °C.

The compound `OCc1ccc(/C=C/c2ccc(OC(F)(F)F)cc2)cc1` returned a melting point of 161 to 163 °C.

In turn, `Cc1ccc(S(=O)(=O)C#CBr)cc1` had a melting point of 99 to 101 °C.

In turn, `O=S(=O)(O)CC(O)CNCC(O)O` (stereo not drawn) had a melting point of 189 to 190 °C.

`N#CCCNC(=S)C1=CC(CF)(CF)Oc2ccc(C(F)(F)C(F)(F)F)cc21` yielded a melting point of 108 to 109 °C.

Turning to `Nc1ccc2nccn2n1`, the melting point fell in the range of 198 to 202 °C.

`O=C1Nc2cccnc2N(C(=O)N2CCC(CCN3CCCCC3)CC2)c2ccccc21` displayed a melting point of 178 to 180 °C.

On to `CCc1cc(-c2cccnc2)nn1-c1ccc(NC(=O)c2cc3ccccc3n2C)cc1`, for which the melting point fell in the range of 178 to 179 °C.

With `Cc1cccc(NC(=O)NC2N=C(c3ccccc3F)c3ccccc3N(Cc3ccccn3)C2=O)c1` (racemic), the melting point was 215 to 216 °C.

Turning to `O=C(NC1CC1)c1ccc(N2CCN(Cc3cnc4c(c3)NC(=O)[C@@H]3CCCN43)CC2)cc1`, the melting point lay in the range of 265 to 268 °C.

Consider `Cc1cccc(/C=C/c2nc(COc3ccc(CCCCn4ccnc4CCO)cc3)co2)c1`, for which the melting point fell in the range of 109 to 111 °C.

`CCOC(=O)c1cc(NCc2ccccc2)c(Oc2ccc(OC)cc2)c(S(N)(=O)=O)c1` yielded a melting point of 189 to 190 °C.

`CSc1nccc(-c2nc(=O)c3ccccc3s2)n1`: the melting point stood at 224 °C.

As to `Cc1ccc(CCCO)c(NCc2ccc3nc(NCCCN4CCOCC4)n(Cc4cccc(Br)n4)c3c2)c1`, the melting point was found to be 141 °C.

`CC(C)(C)OC(=O)NCC1CN(C(c2ccccc2)c2ccccc2)C1` came in with a melting point of 108 to 110 °C.

As for `CC(=O)c1noc2cc(OCc3cccc(C(F)(F)F)c3)ccc12`, the melting point was in the range of 130 to 132 °C.

`CC(C)(C)C(=O)OC1CC(C)(C)N(OC(=O)C(C)(C)C)C(C)(C)C1`: the melting point lay within 43 to 46 °C.

For the compound `Nc1cc(-c2c(-c3cccc(Cl)c3)nc3ccc(Cl)nn23)ccn1`, the melting point was in the range of 268 to 269 °C.

`CCOC(=O)C1=C(C(F)(F)F)NC2=C(C(=O)CCC2)C1c1nccn1C` (stereo not drawn): the melting point fell in the range of 197 to 198 °C.

`Cc1cc(C(=O)N2Cc3cccn3Cc3ccccc32)ccc1C1=CCCCC1C(C)(C)C` (stereo not drawn) came in with a melting point of 127 to 129 °C.

`CNS(=O)(=O)Cc1ccc2[nH]cc(C3CCN(C)C3)c2c1` (stereo not drawn) yielded a melting point of 160 to 162 °C.

Turning to `COc1ccc(-c2[nH]c(-c3ccc(N)c(C)c3)nc2C(=O)Nc2nccs2)cc1`, the melting point was above 250 °C.

Compound `C#Cc1ccc(-c2ccccc2)c(C)c1` returned a melting point of 57 to 59 °C.

In the case of `O=C1CCC(N2Cc3cc(CNC(=O)c4ccc(Cl)cc4)ccc3C2=O)C(=O)N1` (stereo not drawn), the melting point was 278 to 280 °C.

Take `COc1ccc2c(c1)C(=O)OC2=O`: the melting point lay in the range of 89 to 94 °C.

Turning to `C=CCOc1ccc(Cl)cc1C(=O)OC`, the melting point was 25 to 26 °C.

As to `Brc1cccc(OCc2ccc3ccccc3c2)c1`, the melting point fell in the range of 109 to 112 °C.

`NC(=O)C1CCN(C(=O)CNC(=O)OCc2ccccc2)CC1`: the melting point lay in the range of 146 to 149 °C.

`COC(=O)C1=CCCN(C2CCc3ccc(OC)cc3C2)C1` (stereo not drawn) returned a melting point of 65 to 66 °C.

For the compound `COc1cc(C)c2c(c1)CCN2c1nc(Cl)cn(CCSC)c1=O`, the melting point fell in the range of 111 to 113 °C.

`CCOC(=O)C(OCC)C(=O)Nc1ccc(Br)cc1` (stereo not drawn) returned a melting point of 62 to 64 °C.

The compound `CC(=O)c1c(-c2ccc(O)cc2)oc2ccc(O)cc12` registered a melting point of 243 to 251 °C.

In the case of `CC(C)(C)NC(=O)[C@@H]1C[C@H](Br)CN1C(=O)OC(C)(C)C`, the melting point was 159 to 160 °C.

On to `CC(=O)OCC1OC(n2c(Cl)nc3cc(F)c(F)cc32)C(OC(C)=O)C1OC(C)=O` (stereo not drawn), for which the melting point is 90 to 91 °C.

In turn, `CC(COc1ccccc1C(=O)C(=O)c1ccccc1OCC(C)CN(C)C)CN(C)C` (stereo not drawn) gave a melting point of 69 to 70 °C.

Consider `CC1(C)OC(=O)N(Cc2ccccc2[N+](=O)[O-])C1=O`, for which the melting point turned out to be 134 °C.

For the compound `CC(C(=O)O)c1ccc(CCNC(=O)c2cccc3cccnc23)cc1` (stereo not drawn), the melting point is 143 to 144 °C.

Consider `CCCc1nc2c(N)nc3ccccc3c2n1CCOCCCS(C)=O` (stereo not drawn), for which the melting point was 148 to 151 °C.

The compound `COc1cc2sc(=O)n(C(C)=O)c2cc1OC` had a melting point of 164 to 165 °C.

`CCc1ccc(C2CCCN2S(=O)(=O)c2ccc(C)cc2)cc1` (racemic) displayed a melting point of 92 °C.

With `CC(C)(O)COc1c(-c2ccc(S(N)(=O)=O)cc2)cnn(-c2ccc(F)c(Cl)c2)c1=O`, the melting point lay within 176 to 178 °C.

Regarding `O=[N+]([O-])c1ccc(-n2nc(CO)c3c2CCCC3)cc1`, the melting point amounted to 219 °C.

`Cc1cc(C(=O)N[C@H]2CC[C@H](CCN3CCN(c4nccc5c4OCC5)CC3)CC2)on1` displayed a melting point of 199 °C.

The compound `Cc1ccc(Oc2ccc(-c3ccc(Cl)cc3)cc2)cc1` had a melting point of 130 °C.

In the case of `Cc1cc(Cl)cc(C(=O)C(=O)O)c1NC(=O)c1cc(Br)nn1-c1ncccc1Cl`, the melting point is 139 to 142 °C.

In turn, `O=C(C=c1sc2n(c1=O)Cc1ccccc1N=2)NC1CCCCC1` showed a melting point of 287 to 288 °C.

The compound `COc1ccc(-c2c(NC(=O)Nc3ccc(F)cc3F)cnc3ccc(Cl)cc23)c(OC)c1OC` displayed a melting point of 120 to 122 °C.

`CC(=O)Oc1ccc(C(=O)c2cccc(C(=O)O)c2)cc1` gave a melting point of 190 to 193 °C.
